Values of other authors in patent US6448244B1, “Water soluble azoles as broad-spectrum antifungals” (Janssen Pharmaceutica N.V., priority 1998, dated 2002).

Settings: Saksena et al., Bioorg. Med. Chem. Lett. (1995), 5(2), 127-132

For `CN(C)CCn1ncn(-c2ccc(N3CCN(c4ccc(OC[C@@H]5CO[C@@](Cn6cncn6)(c6ccc(F)cc6F)C5)cc4)CC3)cc2)c1=O` (relative stereo) [(3R-cis)-4-[4-[4-[4-[[5-(2,4-difluorophenyl)tetrahydro-5-(1H-1,2,4-triazol-1-ylmethyl)-3-furanyl]methoxy]phenyl]-1-piperazinyl]phenyl]-2-[2-(dimethylamino)ethyl]-2,4-dihydro-3H-1,2,4-triazol-3-one], the “antifungal activity compared to SCH 51048” value is listed as “profoundly less active”.
